Laboratory results taken from the kinase profiling compilation of Christmann-Franck et al. (2016).
Values joined by “and” are separate entries in the source; they are usually repeats but may differ in a detail not shown here. Equal entries are not always repeated.

Assays:
Experiment in all cases: radiometric filter-binding kinase assay, Kinaseprofiler
[1] = target: NUAK1 (human) (UniProt O60285); settings: ATP 45 µM
[2] = target: CSNK2A1 CSNK2B CSNK2A2 (human) (UniProt P19784+P68400+P67870); settings: ATP 15 µM
[3] = target: CAMK2G (human) (UniProt Q13555); settings: ATP 10 µM
[4] = target: EPHA1 (human) (UniProt P21709); settings: ATP 45 µM
[5] = target: CDK9 CCNT1 (human) (UniProt P50750+O60563); settings: ATP 45 µM
[6] = target: ABL1 (human) (UniProt P00519); settings: ATP 10 µM
[7] = target: EPHB4 (human) (UniProt P54760); settings: ATP 10 µM
[8] = target: MAPKAPK3 (human) (UniProt Q16644); settings: ATP 90 µM
[9] = target: SGK3 (human) (UniProt Q96BR1); settings: ATP 155 µM
[10] = target: CDK1 CCNB1 (human) (UniProt P06493+P14635); settings: ATP 45 µM
[11] = target: CAMK1 (human) (UniProt Q14012); settings: ATP 200 µM
[12] = target: PTK2 (human) (UniProt Q05397); settings: ATP 70 µM
[13] = test system: GSK3A (human), P49840 [S449A]; settings: ATP 10 µM
[14] = target: PRKCB1 (human) (UniProt P05771); settings: ATP 10 µM
[15] = target: CAMK1D (human) (UniProt Q8IU85); settings: ATP 15 µM
[16] = target: ITK (human) (UniProt Q08881); settings: ATP 200 µM
[17] = target: MAPK11 (human) (UniProt Q15759); settings: ATP 45 µM
[18] = target: CDK6 CCND3 (human) (UniProt P30281+Q00534); settings: ATP 200 µM
[19] = target: CLK3 (human) (UniProt P49761); settings: ATP 90 µM
[20] = target: NEK2 (human) (UniProt P51955); settings: ATP 120 µM
[21] = target: LIMK1 (human) (UniProt P53667); settings: ATP 15 µM
[22] = target: DAPK3 (human) (UniProt O43293); settings: ATP 15 µM
[23] = target: PRKCQ (human) (UniProt Q04759); settings: ATP 15 µM
[24] = target: PRKG1 (human) (UniProt Q13976); settings: ATP 90 µM
[25] = target: IRAK1 (human) (UniProt P51617); settings: ATP 45 µM
[26] = target: CSNK1G2 (human) (UniProt P78368); settings: ATP 10 µM
[27] = target: CDK2 CCNA2 (human) (UniProt P24941+P20248); settings: ATP 45 µM
[28] = target: NTRK1 (human) (UniProt P04629); settings: ATP 120 µM
[29] = target: ERBB4 (human) (UniProt Q15303); settings: ATP 15 µM
[30] = test system: TAOK3 (human), Q9H2K8 [N47S]; settings: ATP 15 µM
[31] = target: CSK (human) (UniProt P41240); settings: ATP 15 µM
[32] = target: HIPK1 (human) (UniProt Q86Z02); settings: ATP 45 µM

Chain of PRKG1 (human) (Q13976 whole entry, looked up): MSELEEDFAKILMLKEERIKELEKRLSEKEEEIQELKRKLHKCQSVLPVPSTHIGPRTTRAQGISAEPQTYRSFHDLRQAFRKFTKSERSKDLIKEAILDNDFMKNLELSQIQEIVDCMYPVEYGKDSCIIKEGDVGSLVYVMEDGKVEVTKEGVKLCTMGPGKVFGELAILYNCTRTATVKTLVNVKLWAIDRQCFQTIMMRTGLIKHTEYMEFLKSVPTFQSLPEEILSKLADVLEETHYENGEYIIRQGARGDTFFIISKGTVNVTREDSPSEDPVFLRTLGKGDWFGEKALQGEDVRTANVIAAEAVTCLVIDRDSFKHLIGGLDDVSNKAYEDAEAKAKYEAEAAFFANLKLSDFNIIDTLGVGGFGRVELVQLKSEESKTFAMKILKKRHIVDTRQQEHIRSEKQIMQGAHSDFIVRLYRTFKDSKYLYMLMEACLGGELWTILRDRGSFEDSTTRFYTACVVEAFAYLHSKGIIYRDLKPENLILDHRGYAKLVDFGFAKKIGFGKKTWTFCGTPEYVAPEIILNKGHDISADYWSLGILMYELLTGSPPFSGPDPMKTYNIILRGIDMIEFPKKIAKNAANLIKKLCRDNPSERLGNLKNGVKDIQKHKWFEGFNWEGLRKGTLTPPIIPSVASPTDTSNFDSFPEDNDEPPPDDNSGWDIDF
Chain of CDK1 CCNB1 (human) (P06493 whole entry, looked up): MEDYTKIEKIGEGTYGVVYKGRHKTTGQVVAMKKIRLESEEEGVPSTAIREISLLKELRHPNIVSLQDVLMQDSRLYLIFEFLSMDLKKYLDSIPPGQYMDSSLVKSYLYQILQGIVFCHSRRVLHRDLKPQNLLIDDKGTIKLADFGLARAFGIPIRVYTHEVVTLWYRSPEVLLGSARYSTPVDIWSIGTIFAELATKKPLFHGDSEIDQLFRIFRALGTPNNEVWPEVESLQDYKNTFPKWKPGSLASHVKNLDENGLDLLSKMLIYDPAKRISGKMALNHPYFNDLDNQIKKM
Chain of CDK1 CCNB1 (human) (P14635 whole entry, looked up): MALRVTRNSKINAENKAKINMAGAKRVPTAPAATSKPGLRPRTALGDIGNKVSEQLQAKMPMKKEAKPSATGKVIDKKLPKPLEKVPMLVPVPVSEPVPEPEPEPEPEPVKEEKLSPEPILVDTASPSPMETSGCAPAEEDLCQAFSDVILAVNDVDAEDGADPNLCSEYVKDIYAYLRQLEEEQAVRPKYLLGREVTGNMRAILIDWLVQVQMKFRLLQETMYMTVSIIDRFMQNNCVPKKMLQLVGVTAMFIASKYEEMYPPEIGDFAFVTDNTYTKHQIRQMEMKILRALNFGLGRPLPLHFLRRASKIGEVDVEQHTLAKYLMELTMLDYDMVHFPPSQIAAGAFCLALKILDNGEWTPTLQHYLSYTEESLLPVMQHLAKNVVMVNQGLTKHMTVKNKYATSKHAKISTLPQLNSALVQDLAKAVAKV
Chain of CDK6 CCND3 (human) (P30281 whole entry, looked up): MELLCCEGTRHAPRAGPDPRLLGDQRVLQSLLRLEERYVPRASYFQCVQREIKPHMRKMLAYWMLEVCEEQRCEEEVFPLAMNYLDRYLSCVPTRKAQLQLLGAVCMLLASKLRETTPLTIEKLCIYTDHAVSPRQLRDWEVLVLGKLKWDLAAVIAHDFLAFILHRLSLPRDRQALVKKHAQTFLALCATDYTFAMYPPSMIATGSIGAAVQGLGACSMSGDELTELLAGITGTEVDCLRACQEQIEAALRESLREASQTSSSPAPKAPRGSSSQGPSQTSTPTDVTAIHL
Chain of CDK6 CCND3 (human) (Q00534 whole entry, looked up): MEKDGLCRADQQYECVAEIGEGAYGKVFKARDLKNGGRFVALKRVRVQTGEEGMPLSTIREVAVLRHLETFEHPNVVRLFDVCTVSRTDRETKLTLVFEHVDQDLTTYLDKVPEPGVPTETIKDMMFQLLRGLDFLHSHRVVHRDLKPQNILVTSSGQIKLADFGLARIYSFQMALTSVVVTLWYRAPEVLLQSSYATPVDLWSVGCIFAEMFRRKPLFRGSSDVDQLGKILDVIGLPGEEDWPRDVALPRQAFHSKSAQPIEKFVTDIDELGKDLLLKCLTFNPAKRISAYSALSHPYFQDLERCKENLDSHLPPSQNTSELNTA
Chain of CDK2 CCNA2 (human) (P20248 whole entry, looked up, other chains not shown): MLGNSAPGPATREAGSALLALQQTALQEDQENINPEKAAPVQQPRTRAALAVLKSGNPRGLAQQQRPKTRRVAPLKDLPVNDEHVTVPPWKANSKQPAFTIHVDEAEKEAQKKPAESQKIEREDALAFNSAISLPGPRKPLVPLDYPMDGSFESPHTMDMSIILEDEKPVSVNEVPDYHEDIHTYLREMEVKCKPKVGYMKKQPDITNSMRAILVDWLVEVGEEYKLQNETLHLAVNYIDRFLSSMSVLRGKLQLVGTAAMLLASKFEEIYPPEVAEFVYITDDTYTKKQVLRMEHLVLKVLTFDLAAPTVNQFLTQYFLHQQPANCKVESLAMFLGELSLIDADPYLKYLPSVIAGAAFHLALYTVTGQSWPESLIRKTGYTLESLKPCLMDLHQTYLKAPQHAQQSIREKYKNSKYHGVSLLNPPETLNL
Chain of MAPK11 (human) (Q15759 whole entry, looked up): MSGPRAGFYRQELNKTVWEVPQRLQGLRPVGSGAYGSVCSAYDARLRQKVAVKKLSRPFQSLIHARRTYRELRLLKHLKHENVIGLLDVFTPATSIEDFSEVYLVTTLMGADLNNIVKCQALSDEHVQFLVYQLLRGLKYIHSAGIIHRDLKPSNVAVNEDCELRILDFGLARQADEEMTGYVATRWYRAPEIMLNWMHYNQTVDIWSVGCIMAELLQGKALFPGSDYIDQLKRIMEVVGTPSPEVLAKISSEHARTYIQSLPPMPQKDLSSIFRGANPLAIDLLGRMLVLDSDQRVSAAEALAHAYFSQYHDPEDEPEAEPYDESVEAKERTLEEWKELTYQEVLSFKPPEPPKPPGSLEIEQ
Chain of CAMK1 (human) (Q14012 whole entry, looked up): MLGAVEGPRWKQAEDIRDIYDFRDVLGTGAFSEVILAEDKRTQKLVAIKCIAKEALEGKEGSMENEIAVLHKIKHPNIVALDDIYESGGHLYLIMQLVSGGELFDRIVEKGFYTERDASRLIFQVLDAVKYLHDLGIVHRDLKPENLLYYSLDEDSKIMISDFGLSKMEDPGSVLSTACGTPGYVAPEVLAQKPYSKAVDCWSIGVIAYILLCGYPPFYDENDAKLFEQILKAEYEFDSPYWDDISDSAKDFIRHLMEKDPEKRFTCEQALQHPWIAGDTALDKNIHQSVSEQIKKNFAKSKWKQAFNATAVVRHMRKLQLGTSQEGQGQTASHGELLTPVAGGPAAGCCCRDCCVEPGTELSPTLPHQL
Chain of ERBB4 (human) (Q15303 whole entry, looked up): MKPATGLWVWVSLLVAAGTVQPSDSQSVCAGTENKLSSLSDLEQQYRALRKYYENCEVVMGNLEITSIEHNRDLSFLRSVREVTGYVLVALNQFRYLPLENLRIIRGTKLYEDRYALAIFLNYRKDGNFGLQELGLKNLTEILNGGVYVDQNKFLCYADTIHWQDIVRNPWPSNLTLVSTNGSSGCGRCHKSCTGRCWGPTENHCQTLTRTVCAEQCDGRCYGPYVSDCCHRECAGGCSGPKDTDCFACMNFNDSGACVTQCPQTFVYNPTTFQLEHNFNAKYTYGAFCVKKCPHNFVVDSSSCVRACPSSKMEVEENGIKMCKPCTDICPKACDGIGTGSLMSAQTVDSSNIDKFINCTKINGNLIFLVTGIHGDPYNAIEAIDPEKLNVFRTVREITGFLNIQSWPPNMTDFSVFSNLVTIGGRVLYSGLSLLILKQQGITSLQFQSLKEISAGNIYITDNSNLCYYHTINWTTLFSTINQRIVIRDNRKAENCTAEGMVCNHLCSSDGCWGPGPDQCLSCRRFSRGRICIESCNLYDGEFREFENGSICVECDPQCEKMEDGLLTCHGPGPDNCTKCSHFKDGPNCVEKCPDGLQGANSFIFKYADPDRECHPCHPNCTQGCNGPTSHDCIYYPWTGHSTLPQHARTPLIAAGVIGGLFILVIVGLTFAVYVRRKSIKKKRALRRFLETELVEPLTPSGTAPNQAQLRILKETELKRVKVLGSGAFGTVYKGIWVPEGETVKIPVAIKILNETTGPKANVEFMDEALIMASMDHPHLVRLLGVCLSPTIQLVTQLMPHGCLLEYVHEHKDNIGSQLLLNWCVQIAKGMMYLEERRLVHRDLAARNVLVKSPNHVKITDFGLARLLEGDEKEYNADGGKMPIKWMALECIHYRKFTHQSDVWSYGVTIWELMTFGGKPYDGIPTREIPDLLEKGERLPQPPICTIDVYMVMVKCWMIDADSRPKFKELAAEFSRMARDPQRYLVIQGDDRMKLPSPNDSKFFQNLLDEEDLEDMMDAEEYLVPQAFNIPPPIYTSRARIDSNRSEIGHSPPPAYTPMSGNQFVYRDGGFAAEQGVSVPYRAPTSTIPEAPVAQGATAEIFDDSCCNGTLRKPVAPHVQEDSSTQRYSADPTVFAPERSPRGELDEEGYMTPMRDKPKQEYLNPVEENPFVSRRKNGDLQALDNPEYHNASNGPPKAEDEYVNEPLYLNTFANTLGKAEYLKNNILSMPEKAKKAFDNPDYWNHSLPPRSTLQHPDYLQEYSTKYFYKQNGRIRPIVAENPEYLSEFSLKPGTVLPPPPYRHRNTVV
Chain of GSK3A (human), P49840 [S449A] (P49840 whole entry, looked up, stated change not applied): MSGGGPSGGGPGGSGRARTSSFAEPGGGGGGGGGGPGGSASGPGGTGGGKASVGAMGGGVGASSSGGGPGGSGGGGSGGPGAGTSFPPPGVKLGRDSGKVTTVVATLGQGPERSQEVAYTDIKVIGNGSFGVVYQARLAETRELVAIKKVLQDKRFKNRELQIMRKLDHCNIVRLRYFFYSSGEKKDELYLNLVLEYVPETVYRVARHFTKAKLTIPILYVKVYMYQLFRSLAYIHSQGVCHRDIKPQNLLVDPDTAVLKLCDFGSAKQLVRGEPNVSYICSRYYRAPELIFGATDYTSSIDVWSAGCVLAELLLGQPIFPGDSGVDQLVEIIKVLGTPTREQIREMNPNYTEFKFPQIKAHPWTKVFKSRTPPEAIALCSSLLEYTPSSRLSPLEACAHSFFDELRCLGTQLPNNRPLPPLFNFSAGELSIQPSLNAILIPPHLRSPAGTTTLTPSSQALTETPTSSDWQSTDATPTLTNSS

O=C1c2ccccc2-c2n[nH]c3cccc1c23
residual activity ([1]; compound 1.0 µM): 28% | residual activity ([1]; compound 10.0 µM): 17% | residual activity ([2]; compound 1.0 µM): 60% | residual activity ([2]; compound 10.0 µM): 19% | residual activity ([3]; compound 1.0 µM): 37% | residual activity ([3]; compound 10.0 µM): 8% | residual activity ([4]; compound 1.0 µM): 67% | residual activity ([4]; compound 10.0 µM): 42% | residual activity ([5]; compound 1.0 µM): 96% | residual activity ([5]; compound 10.0 µM): 55% | residual activity ([6]; compound 1.0 µM): 83% | residual activity ([6]; compound 10.0 µM): 56% | residual activity ([7]; compound 1.0 µM): 89% | residual activity ([7]; compound 10.0 µM): 55% | residual activity ([8]; compound 1.0 µM): 100% | residual activity ([8]; compound 10.0 µM): 103% | residual activity ([9]; compound 1.0 µM): 85% | residual activity ([9]; compound 10.0 µM): 58% | residual activity ([10]; compound 1.0 µM): 52% | residual activity ([10]; compound 10.0 µM): 35% | residual activity ([11]; compound 1.0 µM): 77% | residual activity ([11]; compound 10.0 µM): 32% | residual activity ([12]; compound 1.0 µM): 52% | residual activity ([12]; compound 10.0 µM): 9% | residual activity ([13]; compound 1.0 µM): 54% | residual activity ([13]; compound 10.0 µM): 40% | residual activity ([14]; compound 1.0 µM): 102% | residual activity ([14]; compound 10.0 µM): 104% | residual activity ([15]; compound 1.0 µM): 70% | residual activity ([15]; compound 10.0 µM): 38% | residual activity ([16]; compound 1.0 µM): 67% | residual activity ([16]; compound 10.0 µM): 21% | residual activity ([17]; compound 1.0 µM): 88% | residual activity ([17]; compound 10.0 µM): 79% | residual activity ([18]; compound 1.0 µM): 76% | residual activity ([18]; compound 10.0 µM): 31% | residual activity ([19]; compound 1.0 µM): 72% | residual activity ([19]; compound 10.0 µM): 34% | residual activity ([20]; compound 1.0 µM): 86% | residual activity ([20]; compound 10.0 µM): 81% | residual activity ([21]; compound 1.0 µM): 64% | residual activity ([21]; compound 10.0 µM): 30% | residual activity ([22]; compound 1.0 µM): 87% | residual activity ([22]; compound 10.0 µM): 45% | residual activity ([23]; compound 1.0 µM): 90% | residual activity ([23]; compound 10.0 µM): 76% | residual activity ([24]; compound 1.0 µM): 90% and 79% | residual activity ([24]; compound 10.0 µM): 60% and 79% | residual activity ([25]; compound 1.0 µM): 69% | residual activity ([25]; compound 10.0 µM): 42% | residual activity ([26]; compound 1.0 µM): 70% | residual activity ([26]; compound 10.0 µM): 6% | residual activity ([27]; compound 1.0 µM): 59% | residual activity ([27]; compound 10.0 µM): 36% | residual activity ([28]; compound 1.0 µM): 10% | residual activity ([28]; compound 10.0 µM): -1% | residual activity ([29]; compound 1.0 µM): 104% | residual activity ([29]; compound 10.0 µM): 97% | residual activity ([30]; compound 1.0 µM): 69% | residual activity ([30]; compound 10.0 µM): 27% | residual activity ([31]; compound 1.0 µM): 105% | residual activity ([31]; compound 10.0 µM): 93% | residual activity ([32]; compound 1.0 µM): 93% | residual activity ([32]; compound 10.0 µM): 62%
